# From US7285564B2, “Substituted 4-amino-1-(pyridylmethyl)piperidine and related compounds” (Theravance, Inc., priority 2002, dated 2007)
# System: oxotremorine-induced salivation
# Test: In vivo rat salivation assay
# Settings: rat bladder assay vs rat salivation assay
# Description: Female Sprague-Dawley rats weighing 200 to 300 g were anesthetized with urethane (1.5 g/kg, s.c., Sigma, St. Louis, Mo.), with a supplement of 0.25 g/kg, s.c. urethane as needed. Urethane was administered at a concentration of 0.25 g/mL.
# Rats were placed on a heated blanket on their dorsal side in an inclined position (20° angle) position (head down). A swab was placed in the rat's mouth. The test compound or vehicle was administered intravenously via the tail vein. After 5 min., oxotremorine (1.0 mg/kg) was administered subcutaneously. The swab was discarded and
# Replaced by a pre-weighed swab. Saliva was then collected for 10 min. and then the swab was removed and re-weighed to determine the output of saliva. Dose-response curves were fitted with a four parameter logistic equation to obtain estimates of ID50 (dose required to produce 50% of the maximal response).
# By comparing the ID50 values determined in the rat bladder assay and rat salivation assay, the in vivo bladder/salivation selectivity ratio was calculated for the compounds tested.
row,SMILES,ID50 bladder/salivation selectivity ratio
1,"CCN(CC)CC#CCOC(=O)C(O)(c1ccccc1)C1CCCCC1 (centres unmarked) [oxybutynin, reference compound]",about 1.4
2,"Cc1ccc(O)c([C@H](CCN(C(C)C)C(C)C)c2ccccc2)c1 [tolterodine, reference compound]",~4.8
